The text below walks through data of patent US20250345329A1, “HETEROARYL DERIVATIVE COMPOUND AND USES THEREOF” (VORONOI, INC., priority 2022, published 2025).

Where only a bound is given, the exact number is not on record here.

The target of test [1] is T1, human EGFR (d746-750/T790M/C797S) (Homo sapiens, UniProt P00533, C797S/DEL746-750/T790M).
T1 construct: human EGFR (d746-750/T790M/C797S) (668-end, SignalChem); purchased SignalChem
Kind of test: EGFR C797S enzyme inhibition activity (ADP-Glo kinase assay). It is filed as biochemical. Conditions: purified enzyme 3 ng, ATP 5 μM, 25° C., 1 hour, luminescence; read-out: EGFR DTC Enzyme IC50. The procedure, abridged:
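Kinase construct 668-end (3 ng) was incubated with 5 μM ATP and 0.2 μg substrate in Tris pH 7.4 buffer for 1 h at 25° C. ADP-Glo luminescence was read over 12 final compound concentrations from 10 μM down to 0. IC50 was taken as 50% inhibition relative to the solvent control.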
(ADP-Glo turns the ADP formed in a reaction into a luminescent signal.)

Test [2] concerns Ba/F3 expressing EGFR Del19/T790M/C797S mutations. Briefly: Inhibitory activity on proliferation of Ba/F3 cell overexpressing EGFR C797S (Cell Titer-Glo). Conditions: Mus musculus, BaF3; 72 hours treatment, cell growth rate vs control; read-out: Ba/F3 (EGFR DTC) GI50. It is filed as cell-based. The procedure, abridged: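 Ba/F3 cells with EGFR Del19/T790M/C797S in RPMI-1640 + 10% FBS were seeded (3000/well) 24 h before 72 h compound exposure at 37 °C. Compounds were tested in a 12-point 3-fold series, final […]–5 μM. CellTiter-Glo luminescence gave growth % versus control, from which GI50 was derived.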
(In general: In ATP-based viability assays light output follows the ATP content of the culture.)

The term IC50 denotes the midpoint of a concentration-inhibition curve.

T1 sequence (P00533 with tags, fused parts or gaps DEL746-750/T790M/C797S): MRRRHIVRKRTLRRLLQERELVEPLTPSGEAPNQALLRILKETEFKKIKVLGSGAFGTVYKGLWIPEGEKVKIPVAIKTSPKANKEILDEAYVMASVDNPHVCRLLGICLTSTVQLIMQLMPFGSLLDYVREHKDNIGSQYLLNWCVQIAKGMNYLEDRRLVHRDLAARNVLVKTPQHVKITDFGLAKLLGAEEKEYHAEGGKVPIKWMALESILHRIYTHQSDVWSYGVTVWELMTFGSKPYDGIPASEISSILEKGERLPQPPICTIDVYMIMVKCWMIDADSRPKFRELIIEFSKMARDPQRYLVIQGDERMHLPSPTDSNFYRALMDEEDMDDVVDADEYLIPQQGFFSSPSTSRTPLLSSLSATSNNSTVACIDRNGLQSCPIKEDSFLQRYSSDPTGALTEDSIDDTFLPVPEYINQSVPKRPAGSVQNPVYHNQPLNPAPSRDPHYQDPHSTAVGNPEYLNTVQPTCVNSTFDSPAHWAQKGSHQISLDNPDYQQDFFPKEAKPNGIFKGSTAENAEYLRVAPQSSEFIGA

As for `CC(C)Nc1cc(Nc2ccnc(-c3cnn(S(=O)(=O)C4CC4)c3)n2)ncc1C(=O)N[C@@H](C(C)C)C(F)(F)F` [Example 79, (S)-6-((2-(1-(cyclopropylsulfonyl)-1H-pyrazol-4-yl)pyrimidin-4-yl)amino)-4-(isopropylamino)-N-(1,1,1-trifluoro-3-methylbutan-2-yl)nicotinamide], the IC50 in test [1] was 50 to 500 nM. Further, the GI50 in test [2] lay in the range of 500 to 5000 nM.

With `CC(C)Nc1cc(Nc2ccnc(-c3cnn(S(=O)(=O)C4CC4)c3)n2)ncc1C(=O)NCCCO` [Example 57, 6-((2-(1-(cyclopropylsulfonyl)-1H-pyrazol-4-yl)pyrimidin-4-yl)amino)-N-(3-hydroxypropyl)-4-(isopropylamino)nico-tinamide], the IC50 in test [1] is under 50 nM. Further, the GI50 in test [2] lay within 500 to 5000 nM.

Take `C[C@H]1CCOc2c(cnn2C)-c2nccc(n2)Nc2cc(c(C(=O)Nc3cccc(N4CCN(C)CC4)c3)cn2)N1` [Example 100, (S)-1^1,6-dimethyl-N-(3-(4-methylpiperazin-1-yl)phenyl)-1^1H-9-oxa-3,5-diaza-2(2,4)-pyrimidina-4(2,4)-pyridina-1(4.5)-pyrazolacyclo-nonaphane-4^5-carboxamide]: the IC50 in test [1] was under 50 nM. The GI50 in test [2] is under 500 nM.

As to `CC(C)Nc1cc(Nc2ccnc(-c3cnn(S(=O)(=O)C4CC4)c3)n2)ncc1C(=O)NC1CN(C(=O)OC(C)(C)C)C1` [Example 46, tert-butyl 3-(6-((2-(1-(cyclopropylsulfonyl)-1H-pyrazol-4-yl)pyrimidin-4-yl)amino)-4-(isopropylamino)nico-tinamido)azetidine-1-carboxylate], the IC50 in test [1] lay in the range of 50 to 500 nM. Also, in test [2], the GI50 lay within 500 to 5000 nM.

Take `CC(C)Nc1cc(Nc2ccnc(-c3cnn(S(=O)(=O)C4CC4)c3)n2)ncc1C(=O)Nc1cc(N2CCN(C)CC2)cc(C(C)(C)C#N)c1` [Example 40, N-(3-(2-cyanopropan-2-yl)-5-(4-methylpiperazin-1-yl)phenyl)-6-((2-(1-(cyclopropylsulfonyl)-1H-pyrazol-4-yl)pyrimidin-4-yl)amino)-4-(isopropylamino)nico-tinamide]: the IC50 in test [1] lay within 50 to 500 nM. For the same molecule, the GI50 in test [2] lay within 500 to 5000 nM.

With `C[C@H]1CCOc2c(cnn2C)-c2nccc(n2)Nc2cc(c(C(=O)N3CC(CS(C)(=O)=O)C3)cn2)N1` [Example 105, (S)-(1^1,6-dimethyl-1^1H-9-oxa-3,5-diaza-2(2,4)-pyrimidina-4(2,4)-pyridina-1(4,5)-pyrazolacyclo-nonaphane-4^5-yl)(3-((methylsulfonyl)meth-yl)azetidin-1-yl)methanone], the IC50 in test [1] was under 50 nM. Besides, the GI50 in test [2] fell in the range of 500 to 5000 nM.

In the case of `CC(C)Nc1cc(Nc2ccnc(-c3cnn(S(=O)(=O)C4CC4)c3)n2)ncc1C(=O)NCC1CCCO1` (stereo not drawn) [Example 62, 6-((2-(1-(cyclopropylsulfonyl)-1H-pyrazol-4-yl)pyrimidin-4-yl)amino)-4-(isopropylamino)-N-((tetrahydrofuran-2-yl)methyl)nicotin-amide], in test [1], the IC50 was under 50 nM. Besides, the GI50 in test [2] was under 500 nM.

Consider `CC(C)Nc1cc(Nc2ccnc(-c3cnn(S(=O)(=O)C4CC4)c3)n2)ncc1C(=O)NCCCS(C)(=O)=O` [Example 64, 6-((2-(1-(cyclopropylsulfonyl)-1H-pyrazol-4-yl)pyrimidin-4-yl)amino)-4-(isopropylamino)-N-(3-(methyl-sulfonyl)propyl) nicotinamide], for which, in test [1], the IC50 lay in the range of 50 to 500 nM. The GI50 in test [2] lay in the range of 500 to 5000 nM.

In the case of `CS(=O)(=O)CC1CN(C(=O)c2cnc(Nc3ccnc(-c4cnn(S(=O)(=O)C5CC5)c4)n3)cc2NC2CCCC2)C1` [Example 6, (4-(cyclopentylamino)-6-((2-(1-(cyclopropylsulfonyl)-1H-pyrazol-4-yl)pyrimidin-4-yl)amino)pyridin-3-yl)(3-((methylsulfonyl)meth-yl)azetidin-1-yl)methanone], the IC50 in test [1] is under 50 nM. Besides, the GI50 in test [2] was in the range of 500 to 5000 nM.
